In patent publication US12667598B2, “Lactobacillus paracasei ATG-EI strain or composition comprising same for preventing or treating respiratory disease” (priority 2021, dated 2026):

Tests used:
[1] = tested on: PM10D-induced airway inflammation model; test: FACS analysis of immune cells in cells isolated from lung tissue; assay type: in vivo, Balb/c mice; conditions: ATG-E1 4×10^9 CFU/mouse, Dexa 3 mg/kg, orally daily for 10 days
Experimental: (§1) There were 8 Balb/c mice (male, 8 weeks old) per group, and all groups except a normal group were injected with a fine dust mixture using the Intra-Nazal-Trachea (INT) injection method described in literatures. The fine dust mixture contained diesel exhaust particles (DEP) (PM10 (Sigma)) and 1% (final concentration) of alum. The fine dust mixture was directly injected into the airways and noses of the experimental animals on days 4, 7, and 10 of the experiment. (Lim et al., Free Radic Biol Med. 25 (6), 635-644 (1998), Shin et al., Korean J. Mediclinal Crop Sci 27 (3), 218-231 (2019)). […] An autopsy was performed on the 11th day after the start of the experiment, and bronchoalveloar lavage fluid (BALF) and lung tissue were collected.
Immune cell profiles (lymphocytes, neutrophils, macrophages, T cell subtypes, Gr-1^+CD11b^+, etc.) were measured by fluorescence-activated cell sorting (FACS) analysis of […] lung tissue of each individual after the end of the experiment in Example 3-1.

[2] = tested on: PM10D-induced airway inflammation model; test: FACS analysis of immune cells in bronchoalveolar lavage fluid (BALF); assay type: in vivo, Balb/c mice; conditions: BAL, ATG-E1 4×10^9 CFU/mouse, Dexa 3 mg/kg, orally daily for 10 days
Experimental: as §1
Immune cell profiles (lymphocytes, neutrophils, macrophages, T cell subtypes, Gr-1^+CD11b^+, etc.) were measured by fluorescence-activated cell sorting (FACS) analysis of bronchoalveolar lavage fluid isolated from each individual after the end of the experiment in Example 3-1.

C[C@@H]1C[C@H]2[C@@H]3CCC4=CC(=O)C=C[C@]4(C)[C@@]3(F)[C@@H](O)C[C@]2(C)[C@@]1(O)C(=O)CO [Dexa, dexamethasone]
Gr-1^+CD11b^+ (Absolute No.) ([1]; NC 0.17, CTL 1.07): 0.60 ± 0.08 ×10^7cells
CD4^+CD69^+ (Absolute No.) ([1]; NC 0.20, CTL 3.01): 0.29 ± 0.07 ×10^7 cells
CD21/35 + B220^+ (Absolute No.) ([1]; NC 0.27, CTL 3.40): 1.35 ± 0.32 ×10^7 cells
CD62L^−CD44^+high (Absolute No.) ([1]; NC 0.35, CTL 2.53): 1.27 ± 0.15 ×10^7 cells
CD8^+ (Absolute No.) ([1]; NC 1.11, CTL 3.46): 1.92 ± 0.18 ×10^7 cells
Eosinophils (Absolute No.) ([1]; NC 1.56, CTL 6.87): 3.41 ± 1.06 ×10^7 cells
CD4^+ (Absolute No.) ([1]; NC 1.97, CTL 6.13): 3.32 ± 0.42 ×10^7cells
Lymphocytes (Absolute No.) ([1]; NC 2.60, CTL 3.17): 9.34 ± 6.56 ×10^7 cells
Neutrophils (Absolute No.) ([1]; NC 3.03, CTL 12.04): 3.41 ± 0.83 ×10^7 cells
CD4^+ (Absolute No.) ([2]; NC 0.07, CTL 5.26): 3.43 ± 0.58 ×10^7 cells
Lymphocytes (Absolute No.) ([2]; NC 0.08, CTL 0.82): 0.96 ± 0.53 ×10^7 cells
CD4^+CD69^+ (Absolute No.) ([2]; NC 0.08, CTL 1.73): 1.40 ± 0.19 ×10^7 cells
CD8^+ (Absolute No.) ([2]; NC 0.14, CTL 3.72): 2.80 ± 0.71 ×10^7 cells
Gr-1^+CD11b^+ (Absolute No.) ([2]; NC 0.34, CTL 1.62): 1.38 ± 0.12 ×10^7 cells
CD62L^−CD44^+high (Absolute No.) ([2]; NC 0.99, CTL 6.40): 5.95 ± 0.85 ×10^7 cells
Macrophage (Absolute No.) ([2]; NC 1.18, CTL 1.82): 2.29 ± 0.28 ×10^7 cells
Neutrophils (Absolute No.) ([2]; NC 3.59, CTL 15.09): 15.01 ± 2.14 ×10^7 cells
